Experimental data taken from patent publication US4425432A (priority 1981, dated 1984).
Read-outs that look alike come from different tables or passages of the source.

Tests used:
Marburg strain = experiment: microbe, parasite or virus in culture; format: cell-based, Butyribacterium methylotrophicum
Clostridium pasteurianum = experiment: microbe, parasite or virus in culture; format: cell-based
[1] = [Butyribacterium] methylotrophicum, 192 h, read-out: % Inhibition of growth, Marburg strain
[2] = Clostridium pasteurianum, 1 h, read-out: % Inhibition of growth, Clostridium pasteurianum

Row | SMILES | inhibition at 100 µg/mL (Marburg strain; [1]) [%] | inhibition at 100 µg/mL (Clostridium pasteurianum; [2]) [%] | sensitivity of the Marburg strain (B. methylotrophicum) to antibiotics and inhibitors, in words (Marburg strain) | also measured
1 | O=C(N[C@H](CO)[C@H](O)c1ccc([N+](=O)[O-])cc1)C(Cl)Cl [Chloramphenicol] | 100 | 100 |  | 
2 | O=O [Oxygen] |  |  | effective inhibitor of growth | % Inhibition of growth, Marburg strain (Marburg strain): 100%; % Inhibition of growth, Clostridium pasteurianum (Clostridium pasteurianum): 100%
3 | CC1(C)S[C@@H]2[C@H](NC(=O)Cc3ccccc3)C(=O)N2[C@H]1C(=O)O [Penicillin] | 100 | 100 |  | 
4 | [N-]=[N+]=[N-] [Sodium azide] |  |  | noticeably more tolerant | inhibition at 50 µg/mL (Marburg strain; [1]): 0%; inhibition at 250 µg/mL (Marburg strain; [1]): 0%; inhibition at 50 µg/mL (Clostridium pasteurianum; [2]): 100%; inhibition at 250 µg/mL (Clostridium pasteurianum; [2]): 93%
5 | [Cl-].[Na+] [Sodium chloride] |  |  | noticeably more tolerant | % Inhibition of growth, Marburg strain (Marburg strain; 2%): 0%; % Inhibition of growth, Clostridium pasteurianum (Clostridium pasteurianum; 2%): 73%
6 | [H]/N=C(/N)N[C@H]1[C@H](O)[C@@H](O)[C@H](O[C@@H]2O[C@@H](C)[C@](O)(C=O)[C@H]2O[C@@H]2O[C@@H](CO)[C@H](O)[C@@H](O)[C@@H]2NC)[C@@H](N/C(N)=N\[H])[C@@H]1O [Streptomycin] | 80 | 100 |  | 
7 | CN(C)C1C(=O)C(C(N)=O)=C(O)C2(O)C(=O)C3=C(O)c4c(O)cccc4C(C)(O)C3CC12 (stereo not shown) [Tetracycline] | 100 | 100 |  | 
